The source of these data is US20240366639A1, “HETEROCYCLIC GLP-1 AGONISTS” (GASHERBRUM BIO, INC., priority 2021, published 2024).

Like-named read-outs stand apart in the source and are kept apart here. A value given as a limit tells only on which side of the number the result lay.

This experiment deals with T1, GLP-1 Receptor (GLP1R) (Homo sapiens, UniProt P43220).
T1 construct: host or cells: HEK293/GLP1R/CRE-LUC
In words: GLP-1R agonist cAMP stimulation assay (Method 3). The class given is cell-based. The note with it: HEK293/GLP1R/CRE-LUC cells (HDB), Method 3, 30 min incubation. As to the method: Method 3: Activation of GLP-1 receptor is known to stimulate cyclic AMP (cAMP) production in cells which indicates primary coupling to the Gαs subunit of the G protein heterotrimeric complex.
To optimize functional activity directed toward Gαs coupling, a HEK293/CRE-Luc cell line developed by HDB stably expressing the GLP-1 Receptor was used, 200× concentration of compound working solutions were prepared (Agilent Technologies Bravo) with 1/2 log serial dilution in 384-well Echo LDV plate (Labcyte, Cat #LP-0200). 50 nL/well 200× concentration of compound working solutions were moved to 384-well white low volume plate (Greiner, Cat #784075) using Labcyte ECHO550. 1×10^5 cells/mL HEK293/GLP1R/CRE-LUC(HD Biosciences) cell suspensions prepared with assay buffer [DPBS containing 0.5 mM IBMX (Sigma, Cat #15879) and 0.1% BSA (GENVIEW, Cat #FA016-100 g)], 10 μL cell suspensions were added to each well of previous generated assay plate which already contains 50 nL compound at 200× concentration using ThermoFisher Multidrop Combi (1000 cells/well). Seal the plate and incubate at 37° C. with 5% CO2 for 30 min.
After incubation the cAMP assay signal was generated using cAMP dynamic 2 Kit (Cisbio). 5 μL cAMP-d2 working solution was added to each well, followed with 5 μL Anti-cAMP antibody-cryptate working solution added to each well using ThermoFisher Multidrop Combi. Incubate at room temperature for 1 hour protected from light. Read the fluorescence at 665 nm and 615 nm with Reader PerkinElmer EnVision.

Setting [1] is: read-out: GLP1R cAMP Stimulation DR: EC50 (nM) [Species: Human, Assay Cell Line: HDB].
The mark [2] stands for this setting: read-out: GLP1R cAMP Stimulation DR: pEC50 (M) [Species: Human, Assay Cell Line: HDB] (converted).

T1 sequence (P43220 24-463): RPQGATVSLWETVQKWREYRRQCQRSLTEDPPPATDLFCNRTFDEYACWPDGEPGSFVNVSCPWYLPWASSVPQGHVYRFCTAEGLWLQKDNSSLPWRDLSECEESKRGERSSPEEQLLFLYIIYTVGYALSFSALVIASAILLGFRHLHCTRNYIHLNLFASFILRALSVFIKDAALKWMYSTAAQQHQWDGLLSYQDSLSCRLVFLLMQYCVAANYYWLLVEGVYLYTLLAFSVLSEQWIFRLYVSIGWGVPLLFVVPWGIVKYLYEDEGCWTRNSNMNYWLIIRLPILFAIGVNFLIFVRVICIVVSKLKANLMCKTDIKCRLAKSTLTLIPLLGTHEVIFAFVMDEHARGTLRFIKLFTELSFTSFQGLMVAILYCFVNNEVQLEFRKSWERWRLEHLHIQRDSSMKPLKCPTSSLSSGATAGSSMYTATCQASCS

Take `CCP(=O)(CC)c1ccc(-n2ccn(-c3c4c(nn3-c3cc(C)c(F)c(C)c3)CCN(C(=O)c3cc5cc(C6CCOCC6)ccc5n3[C@@]3(c5noc(=O)[nH]5)C[C@@H]3C)[C@H]4C)c2=O)cc1N` [Compound 138a, 3-((1S,2S)-1-(2-((S)-3-(3-(3-amino-4-(diethylphosphoryl)phenyl)-2-oxo-2,3-dihydro-1H-imidazol-1-yl)-2-(4-fluoro-3,5-dimethylphenyl)-4-methyl-4,5,6,7-tetrahydro-2H-pyrazolo[4,3-c]pyridine-5-carbonyl)-5-(tetrahydro-2H-pyran-4-yl)-1H-indol-1-yl)-2-methylcyclopropyl)-1,2,4-oxadiazol-5(4H)-one]: the EC50 was less than 0.1 nM under setting [1] and not above 0.1 nM under setting [2].

For `Cc1cc(-n2nc3c(c2-n2ccn(-c4cc(P(C)(C)=O)c5[nH]cnc5c4)c2=O)[C@H](C)N(C(=O)c2cc4cc(C5CCOCC5)ccc4n2[C@@]2(c4noc(=O)[nH]4)C[C@@H]2C)CC3)cc(C)c1F` [Compound 110a, 3-((1S,2S)-1-(2-((S)-3-(3-(7-(dimethylphosphoryl)-1H-benzo[d]imidazol-5-yl)-2-oxo-2,3-dihydro-1H-imidazol-1-yl)-2-(4-fluoro-3,5-dimethylphenyl)-4-methyl-4,5,6,7-tetrahydro-2H-pyrazolo[4,3-c]pyridine-5-carbonyl)-5-(tetrahydro-2H-pyran-4-yl)-1H-indol-1-yl)-2-methylcyclopropyl)-1,2,4-oxadiazol-5(4H)-one], the EC50 was 0.5 to 5 nM under setting [1] and 0.1 to 1 nM under setting [2].

On to `Cc1cc(-n2ccn(-c3c4c(nn3-c3cc(C)c(F)c(C)c3)CCN(C(=O)c3cc5cc(C6CCOCC6)ccc5n3[C@@]3(c5noc(=O)[nH]5)C[C@@H]3C)[C@H]4C)c2=O)ccc1P(C)(C)=O` [Compound 124a, 3-((1S,2S)-1-(2-((S)-3-(3-(4-(dimethylphosphoryl)-3-methylphenyl)-2-oxo-2,3-dihydro-1H-imidazol-1-yl)-2-(4-fluoro-3,5-dimethylphenyl)-4-methyl-4,5,6,7-tetrahydro-2H-pyrazolo[4,3-c]pyridine-5-carbonyl)-5-(tetrahydro-2H-pyran-4-yl)-1H-indol-1-yl)-2-methylcyclopropyl)-1,2,4-oxadiazol-5(4H)-one], for which the EC50 is less than 0.1 nM under setting [1] and not above 0.1 nM under setting [2].

Turning to `CCP(=O)(CC)c1ccc(-n2ccn(-c3c4c(nn3-c3cc(C)c(F)c(C)c3)CCN(C(=O)c3cc5cc(C6CCOCC6)ccc5n3[C@@]3(c5noc(=O)[nH]5)C[C@@H]3C)[C@H]4C)c2=O)cc1NC(C)C` [Compound 119a, 3-((1S,2S)-1-(2-((S)-3-(3-(4-(diethylphosphoryl)-3-(isopropylamino)phenyl)-2-oxo-2,3-dihydro-1H-imidazol-1-yl)-2-(4-fluoro-3,5-dimethylphenyl)-4-methyl-4,5,6,7-tetrahydro-2H-pyrazolo[4,3-c]pyridine-5-carbonyl)-5-(tetrahydro-2H-pyran-4-yl)-1H-indol-1-yl)-2-methylcyclopropyl)-1,2,4-oxadiazol-5(4H)-one], the EC50 is 0.2 to 0.5 nM under setting [1] and 0.1 to 1 nM under setting [2].

Regarding `Cc1cc(-n2nc3c(c2-n2ccn(-c4ccc(P(C)(C)=O)c(N)c4)c2=O)[C@H](C)N(C(=O)c2cc4cc(C5CCOCC5)ccc4n2[C@@]2(c4noc(=O)[nH]4)C[C@@H]2C)CC3)cc(C)c1F` [Compound 111a, 3-((1S,2S)-1-(2-((S)-3-(3-(3-amino-4-(dimethylphosphoryl)phenyl)-2-oxo-2,3-dihydro-1H-imidazol-1-yl)-2-(4-fluoro-3,5-dimethylphenyl)-4-methyl-4,5,6,7-tetrahydro-2H-pyrazolo[4,3-c]pyridine-5-carbonyl)-5-(tetrahydro-2H-pyran-4-yl)-1H-indol-1-yl)-2-methylcyclopropyl)-1,2,4-oxadiazol-5(4H)-one], the EC50 under setting [1] was less than 0.1 nM and the EC50 under setting [2] was not above 0.1 nM.
